{"source": "patent US20050074485A1", "about": "“Anti-inflammatory/anti-microbial peptides for use in dialysis” (priority 2003, published 2005)", "key": {"[1]": {"conditions": "Hiltz et al. 1991; cited from earlier work"}, "[2]": {"test_system": "Candida albicans (ATCC 10231)", "assay": "Broth dilution turbidity test of growth inhibition", "format": "cell-based", "conditions": "turbidity after 16-20 hours at 35±2° C.", "protocol": "(§1) These organisms were subcultured onto blood agar plates and incubated for 16-24 hours at 35±2° C. An inoculated needle or loop was touched to each of four or five well isolated colonies of the same morphological type, and the inoculum inoculated into 5 mL of MHB.\n(§2) The broth cultures were then allowed to incubate at 35±2° C. until turbidity appeared (usually 2 to 5 hours). […] This turbidity is half the density of a McFarland number one standard and is often referred to as McFarland 0.5 standard (approx. 1.5×10^8 CFU/mL). This turbidity standard was agitated on a vortex mixer immediately before use. Sealed tubes were stored in the dark at room temperature and replaced if the inocula are shown (by count) to be aberrant.\n(§3) The broth culture was further diluted to 1:200 in MHB broth (to obtain a final concentration of 10^5 to 10^6 CFU/mL). To determine the initial concentration of the organism in the above solution, serial dilutions were performed 1:10 in MHB four times to achieve a final dilution of 10^−4. Aliquots 1.0 mL from each of the dilutions were placed in duplicate into sterile petri dishes. Approximately 15 to 20 mL of tempered (45±2° C.) MCTA agar media was added. The plates were incubated overnight at 35±2° C. for 16-20 hours. Following the incubation period, the colonies were counted.\n(§4) These dilutions were developed according to the procedure: for each drug substance label 9 flasks (10 ml Volumetric) 1 through 9; for each sample add 3 mL of deionized (“DI”) water to a 10 mL volumetric flask; then transfer the amount of anti-microbial and anti-inflammatory peptides as specified below in Table 2; record the actual amount transferred in the laboratory notebook; and add the remaining amount of DI water to bring up to volume of 10 mL.\n(§5) 100 μL of the anti-microbial and anti-inflammatory peptide solution from each of the flasks was then added to the correspondingly labeled well; to well number 10 add 100 μL sterile DI Water; and to all ten wells add 100 μL of inoculum created previously.\n(§6) The procedure was repeated for each of the seven microorganisms tested.\n(§7) Each well was tested for turbidity, as an indicator of growth."}, "[3]": {"conditions": "cited from earlier work; for antipyretic potency relative to α-MSH (11-13): centrally administered, rabbit, Deeter et al. 1989"}, "[4]": {"test_system": "C. albicans (clinical isolate)", "assay": "C. albicans viability by colony forming units", "format": "cell-based, Candida albicans", "conditions": "10^−6 M", "protocol": "C. albicans (clinical isolate) were obtained from the collection of the Department of Microbiology, Ospedale Maggiore di Milano. C. albicans were maintained on Sabouraud's agar slants and periodically transferred to Sabouraud's agar plates and incubated for 48 hours at 28° C. To prepare stationary growth phase yeast, a colony was taken from the agar plate and transferred into 30 ml Sabouraud-dextrose broth and incubated for 72 hours at 32° C. Cells were centrifuged at 100×g for 10 minutes and the pellet was washed twice with distilled water. Cells were counted and suspended in Hank's balanced salt solution (“HBSS”) to the desired concentration. […] C. albicans (I×10^6/ml in HBSS) was incubated in the presence or absence of α-MSH [1-13], KPV, (SEQ. ID NO.1) or the (“KPV dimer”) at concentrations in the range of 10^−15 to 10^−4M for 2 hours at 37° C. Cells were then washed in cold distilled water and diluted with HBSS to a concentration of 100 organisms/ml. One ml aliquots were dispensed on blood agar plates and incubated for 48 hours at 37° C. Organism viability was estimated from the number of colonies formed.\nFluconazole is a well established antifungal agent. […] The peptides and fluconazole were tested in concentrations of 10^−6 M. There were at least six replicates for each concentration of peptide."}, "[5]": {"test_system": "Enterococcus faecalis (MDR) (ATCC 51299)", "assay": "Broth dilution turbidity test of growth inhibition", "format": "cell-based", "protocol": "as §1, §2, §3, §4, §5, §6, §7"}, "[6]": {"test_system": "Streptococcus pyogenes Group A (ATCC 19615)", "assay": "Broth dilution turbidity test of growth inhibition", "format": "cell-based", "protocol": "as §1, §2, §3, §4, §5, §6, §7"}, "[7]": {"test_system": "Staphylococcus aureus (ATCC29213)", "assay": "S. aureus viability by colony forming units", "format": "cell-based", "conditions": "10^−15 to 10^−4M, 2 hours at 37° C.", "protocol": "Staphylococcus aureus (ATCC29213) was obtained from the collection of the Department of Microbiology, Ospedale Maggiore di Milano. S. aureus (1×10^6/ml in HBSS) was incubated in the presence or absence of α-MSH [1-13] (SEQ ID NO: 6), α-MSH [11-13] (SEQ. ID NO. 1) or the KPV dimer (SEQ ID NO: 4) at concentrations in the range of 10^−15 to 10^−4M for 2 hours at 37° C. S. aureus were then washed in cold distilled water and diluted with HBSS to a concentration of 100 organisms/ml. One ml aliquots were dispensed on blood agar plates and incubated for 24 hours at 37° C. Organism viability was estimated from the number of colony forming units."}, "[8]": {"test_system": "S. aureus", "assay": "Urokinase-induced growth enhancement of S. aureus", "format": "cell-based, Staphylococcus aureus", "conditions": "10^−6 M, recombinant human urokinase 500 U, four hours at 37° C.", "protocol": "In this experiment, the influence of α-MSH on urokinase-induced growth-enhancement is determined. […] (SEQ. ID NO.1) at 10^−6 M. Appropriate dilutions of S. aureus were dispensed on agar plates and colonies counted after 24 hours incubation at 37° C."}, "[9]": {"test_system": "HIV transcription", "conditions": "10^−5M; PMA (1 ng/mL) stimulated UI cells, 24 h"}, "[10]": {"test_system": "HIV-1 infected promonocytic UI cell line", "assay": "HIV-p24 release from TNF-α stimulated UI cells (ELISA)", "format": "cell-based", "conditions": "48 hr"}, "[11]": {"test_system": "Staphylococcus epidermidis (ATCC 12228)", "assay": "Broth dilution turbidity test of growth inhibition", "format": "cell-based", "protocol": "The following microorganisms were used in the Example: Candida albicans (ATCC 10231); Enterococcus faecalis (MDR) (ATCC 51299); Escherichia coli (ATCC 11229); Pseudomonas aeruginosa (ATCC 9027); Staphylococcus aureus (ATCC 6538); Staphylococcus epidermidis (ATCC 12228); and Streptococcus pyogenes Group A (ATCC 19615). These organisms were subcultured onto blood agar plates and incubated for 16-24 hours at 35±2° C. An inoculated needle or loop was touched to each of four or five well isolated colonies of the same morphological type, and the inoculum inoculated into 5 mL of MHB.\nas §2\nThe broth culture was further diluted to 1:200 in MHB broth (to obtain a final concentration of 10^5 to 10^6 CFU/mL). To determine the initial concentration of the organism in the above solution, serial dilutions were performed 1:10 in MHB four times to achieve a final dilution of 10^−4. […] Following the incubation period, the colonies were counted. […]"}, "[12]": {"conditions": "in vivo"}, "[13]": {"conditions": "in vivo", "remark": "listed apart in the source"}, "[14]": {"conditions": "turbidity after 16-20 hours at 35±2° C."}}, "note": "Entries after “also recorded” stand apart in the source; their conditions may differ. Where a SMILES comes first, the peptide text is derived from it. Bridges are numbered along the chain shown (N, C = ends). Roman numbers before positions name the chains, in order. Where no end group is shown, it is not given here. [ ]: non-standard residue; d: D form.", "data": [{"molecule": "[dK11] α-MSH (11-13)", "values": [{"measurement": "anti-inflammatory potency relative to L-form tripeptide α-MSH 11-13", "setting": "[1]", "result": "same general potency as the L-form"}]}, {"molecule": "[Nle4 dPhe7]α-MSH [NDP]", "values": [{"measurement": "minimal effective concentration that completely inhibited growth", "setting": "[2]", "result": "10^−3 M"}, {"measurement": "potency in reducing fever relative to the parent peptide", "setting": "[3]; Holdeman and Lipton 1985", "result": "approximately ten times more potent than the parent peptide"}]}, {"molecule": "8-13 sequence: α-MSH fragment 8-13 (RWGKPV; ends and bridges not checked; UniProt P01189 145-150, looked up, fragment)", "values": [{"measurement": "antipyretic potency relative to α-MSH (11-13)", "setting": "[3]", "result": "greater than that of the 11-13 sequence"}]}, {"molecule": "ACTH (1-39): adrenocorticotropic hormone (SYSMEHFRWGKPVGKKRRPVKVYPAKEDDEASEAFPLEF; listed as Homo sapiens) [reference compound]", "values": [{"measurement": "reduction of C. albicans viability in comparison with fluconazole", "setting": "[4]", "result": "did not reduce C. albicans viability"}]}, {"molecule": "Met-Glu-His-Phe-Arg-Trp-Gly (EHFRWG; listed as Homo sapiens) [α-MSH [4-10], reference compound]", "values": [{"measurement": "inhibition of C. albicans CFU", "setting": "[4]", "result": "approximately 50%"}]}, {"molecule": "ACTH fragment (18-39): ACTH fragment (18-39) (PVKVYPAKEDDEASEAFPLEF; listed as Homo sapiens) [reference compound]", "values": [{"measurement": "reduction of C. albicans viability in comparison with fluconazole", "setting": "[4]", "result": "did not reduce C. albicans viability"}]}, {"molecule": "Lysine-Proline-Valine [KPV]", "values": [{"measurement": "effectiveness against the organism (in words)", "setting": "[5]", "result": "effective"}, {"measurement": "effectiveness against the organism (in words)", "setting": "[6]", "result": "effective"}, {"measurement": "S. aureus colony formation (CFU)", "setting": "[7]", "result": "inhibited S. aureus colony formation"}, {"measurement": "urokinase-enhanced S. aureus colony formation", "setting": "[8]", "result": "significantly inhibited the enhancing effect of urokinase; also recorded: significantly inhibited this urokinase-enhancing effect"}, {"measurement": "reduction of C. albicans viability in comparison with fluconazole", "setting": "[4]", "result": "most effective"}, {"measurement": "reduction of spliced and unspliced HIV-1 RNA", "setting": "[9]", "result": "approximately 50%"}]}, {"molecule": "SYSMEHFRWGKPV [α-MSH [1-13]]", "values": [{"measurement": "S. aureus colony formation (CFU)", "setting": "[7]", "result": "inhibited S. aureus colony formation"}, {"measurement": "urokinase-enhanced S. aureus colony formation", "setting": "[8]", "result": "significantly inhibited this urokinase-enhancing effect"}, {"measurement": "urokinase-enhanced S. aureus colony formation", "setting": "[8]; listed as α-MSH", "result": "significantly inhibited the enhancing effect of urokinase"}, {"measurement": "reduction of C. albicans viability in comparison with fluconazole", "setting": "[4]", "result": "most effective"}, {"measurement": "inhibition of p24 release", "setting": "[10]; 10^−5 M, TNF-α (10 ng/mL) stimulated UI cells", "result": 52.7, "unit": "%"}, {"measurement": "p24 release from TNF-α stimulated UI cells (in words)", "setting": "[10]; 10^−13 to 10^−4 M", "result": "significantly inhibited p24 release"}]}, {"molecule": "SYSMEHdFRWGKPV (SYSMEH[dF]RWGKPV; ends and bridges not checked) [Phe7]", "values": [{"measurement": "minimal effective concentration that completely inhibited growth", "setting": "[2]", "result": "10^−3 M"}, {"measurement": "effectiveness against the organism (in words)", "setting": "[5]", "result": "effective"}, {"measurement": "minimal effective concentration that completely inhibited growth", "setting": "[5]; [14]", "result": "10^−3 M"}, {"measurement": "effectiveness against the organism (in words)", "setting": "[6]", "result": "effective"}, {"measurement": "minimal effective concentration that completely inhibited growth", "setting": "[6]; [14]", "result": "10^−4 M"}, {"measurement": "effectiveness against the organism (in words)", "setting": "[11]", "result": "very effective"}, {"measurement": "minimal effective concentration that completely inhibited growth", "setting": "[11]; [14]", "result": "10^−4 M"}]}, {"molecule": "9-13 sequence: α-MSH fragment 9-13 (WGKPV; ends and bridges not checked; UniProt P01189 146-150, looked up, fragment)", "values": [{"measurement": "antipyretic potency relative to α-MSH (11-13)", "setting": "[3]", "result": "almost devoid of activity"}]}, {"molecule": "HFRWGKPV (listed as Homo sapiens) [α-MSH [6-13]]", "values": [{"measurement": "reduction of C. albicans viability in comparison with fluconazole", "setting": "[4]", "result": "most effective"}]}, {"molecule": "CC(=O)N[C@@H](CSSC[C@H](NC(C)=O)C(=O)N[C@@H](CCCCN)C(=O)N1CCC[C@H]1C(=O)N[C@H](C(N)=O)C(C)C)C(=O)N[C@@H](CCCCN)C(=O)N1CCC[C@H]1C(=O)N[C@H](C(N)=O)C(C)C", "note": "[KPV dimer, Val-Pro-Lys-AcCys-s-s-CysAc-Lys-Pro-Val] (I: Ac-CKPV-NH2 / II: Ac-CKPV-NH2; disulfide I:1-II:1)", "values": [{"measurement": "negative side effects", "setting": "[12]", "result": "without negative side effects"}, {"measurement": "safety and tolerability", "setting": "[13]", "result": "remarkable safety of and tolerability"}]}, {"molecule": "10-13 sequence: α-MSH fragment formed by addition of glycine to α-MSH (11-13) (GKPV; ends and bridges not checked; UniProt P01189 147-150, looked up, fragment)", "values": [{"measurement": "antipyretic potency relative to α-MSH (11-13)", "setting": "[3]", "result": "slightly decreased potency"}]}]}
